Experimental data: article PMC6749346, “Synthesis of Isorhamnetin-3-O-Rhamnoside by a Three-Enzyme (Rhamnosyltransferase, Glycine Max Sucrose Synthase, UDP-Rhamnose Synthase) Cascade Using a UDP-Rhamnose Regeneration System” (Molecules, 2019)

Columns and labels:
[1] = target: T1, rhamnosyltransferase 78D1 (Arabidopsis thaliana, UniProt Q9S9P6); test: HPLC activity assay with […] UDP, […] min pre-incubation; assay type: biochemical; settings: inhibitor; UDP-rhamnose donor, 0.5 mM isorhamnetin; 50 mM phosphate pH 7.5; 35 °C
T1 construct: gene UGT78D1; codon-optimised synthetic gene in pET-28a (BamHI/EcoRI), E. coli BL21(DE3), Ni-NTA purified; theoretical monomer mass 50019 Da
T1 sequence (Q9S9P6 1-453): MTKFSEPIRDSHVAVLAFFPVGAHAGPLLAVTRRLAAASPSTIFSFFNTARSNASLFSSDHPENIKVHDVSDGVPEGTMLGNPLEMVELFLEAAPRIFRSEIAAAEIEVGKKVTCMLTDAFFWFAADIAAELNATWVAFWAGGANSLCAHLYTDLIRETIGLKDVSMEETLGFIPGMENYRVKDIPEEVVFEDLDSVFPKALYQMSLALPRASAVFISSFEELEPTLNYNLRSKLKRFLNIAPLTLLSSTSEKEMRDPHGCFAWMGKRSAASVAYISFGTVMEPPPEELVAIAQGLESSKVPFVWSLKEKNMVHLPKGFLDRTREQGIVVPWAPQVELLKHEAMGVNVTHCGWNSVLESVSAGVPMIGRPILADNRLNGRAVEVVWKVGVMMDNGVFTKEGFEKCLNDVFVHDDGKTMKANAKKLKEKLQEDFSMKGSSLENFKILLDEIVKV

[2] = substrate: COc1cc(-c2oc3cc(O)cc(O)c3c(=O)c2O)ccc1O; test: HPLC of isorhamnetin-3-O-rhamnoside formation, initial rates; assay type: biochemical, Arabidopsis thaliana; settings: co-substrate excess UDP-rhamnose, 50 mM phosphate pH 7.5, 35 °C

## O=c1ccn([C@@H]2O[C@H](COP(=O)(O)OP(=O)(O)O)[C@@H](O)[C@H]2O)c(=O)[nH]1 [UDP]
[1]
  % activity: The enzyme activity was inhibited when the concentration of UDP was gradually increased

B1: rhamnosyltransferase 78D1 (Arabidopsis thaliana) (protein)
chain: T1 sequence (Q9S9P6 1-453)
notes: codon-optimised synthetic gene in pET-28a (BamHI/EcoRI), E. coli BL21(DE3), Ni-NTA purified; theoretical monomer mass 50019 Da
[2]
  Km: 181 µM
